Reference: ChEMBL document CHEMBL4376834, “Discovery of 4H-Chromen-4-one Derivatives as a New Class of Selective Rho Kinase (ROCK) Inhibitors, which Showed Potent Activity in ex Vivo Diabetic Retinopathy Models” (J Med Chem, 2019)

What was measured:
[1] = biological target: Cytoplasmic tyrosine-protein kinase BMX (Homo sapiens, UniProt P51813); experiment: Inhibition of recombinant full length human BMX using poly(Glu, Tyr) 4:1 as substrate incubated for 40 mins in presence of [gamma-33ATP] by radiometric scintillation counting analysis
[2] = biological target: Beta-adrenergic receptor kinase 1 (Homo sapiens, UniProt P25098); experiment: Inhibition of recombinant full length human GRK2 using casein as substrate after 40 mins in presence of [gamma-33ATP] by radiometric scintillation counting analysis
[3] = biological target: Serine/threonine-protein kinase ULK2 (Homo sapiens, UniProt Q8IYT8); experiment: Inhibition of recombinant human ULK2 (1 to 306 residues) using casein as substrate incubated for 40 mins in presence of [gamma33P]ATP by radiometric scintillation counting analysis
[4] = biological target: Fibroblast growth factor receptor 4 (Homo sapiens, UniProt P22455); experiment: Inhibition of recombinant human FGFR4 (442 to 755 residues) using poly(Glu, Tyr) 4:1 as substrate after 40 mins in presence of [gamma-33ATP] by radiometric scintillation counting analysis
[5] = Inhibition of recombinant human Plk4 S34T mutant (1 to 273 residues) using casein as substrate incubated for 40 mins in presence of [gamma33P]ATP by radiometric scintillation counting analysis
[6] = biological target: Serine/threonine-protein kinase Nek2 (Homo sapiens, UniProt P51955); experiment: Inhibition of recombinant full-length human NEK2 using myelin basic protein as substrate measured after 40 mins in presence of [gamma33P]ATP by radiometric scintillation counting analysis
[7] = biological target: Serine-protein kinase ATM (Homo sapiens, UniProt Q13315); experiment: Inhibition of recombinant full-length human ATM using GST-cMyc-p53 as substrate measured after 40 mins by ELISA
[8] = biological target: PI3-kinase p110-alpha/p85-alpha (Homo sapiens, UniProt P42336, E542K); experiment: Inhibition of recombinant human full length PI3K p110alpha/p85alpha E542K mutant using phosphatidylinositol 4,5-bisphosphate as substrate incubated for 40 mins in presence of [gamma33P]ATP by radiometric scintillation counting analysis
[9] = biological target: cAMP-dependent protein kinase catalytic subunit beta (Homo sapiens, UniProt P22694); experiment: Inhibition of recombinant full length human PKAcbeta using KEAKEKRQEQIAKR as substrate incubated for 40 mins in presence of [gamma33P]ATP by radiometric scintillation counting analysis
[10] = biological target: Serine/threonine-protein kinase VRK1 (Homo sapiens, UniProt Q99986); experiment: Inhibition of human VRK1 in presence of 10 uM ATP by radiometric analysis
Chain of Serine/threonine-protein kinase VRK1 (Q99986 whole entry): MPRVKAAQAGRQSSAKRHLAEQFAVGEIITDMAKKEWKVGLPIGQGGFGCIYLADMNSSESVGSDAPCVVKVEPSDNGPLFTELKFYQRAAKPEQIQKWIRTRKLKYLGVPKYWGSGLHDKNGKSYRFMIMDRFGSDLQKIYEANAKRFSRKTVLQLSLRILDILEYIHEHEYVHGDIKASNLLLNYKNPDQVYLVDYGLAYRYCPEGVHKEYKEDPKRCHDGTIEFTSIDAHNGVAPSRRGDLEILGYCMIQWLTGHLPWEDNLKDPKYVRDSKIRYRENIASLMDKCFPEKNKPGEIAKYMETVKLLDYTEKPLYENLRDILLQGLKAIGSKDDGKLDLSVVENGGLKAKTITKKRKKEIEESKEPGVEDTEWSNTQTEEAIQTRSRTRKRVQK

[11] = biological target: High affinity nerve growth factor receptor (Homo sapiens, UniProt P04629); experiment: Inhibition of recombinant human TRKA (440 to end residues) using KKKSPGEYVNIEF as substrate incubated for 40 mins in presence of [gamma33P]ATP by radiometric scintillation counting analysis
[12] = biological target: Tyrosine-protein kinase BTK (Homo sapiens, UniProt Q06187, R28H); experiment: Inhibition of recombinant full length human BTK R28H mutant using KVEKIGEGTYGVV substrate incubated for 40 mins in presence of [gamma-33ATP] by radiometric scintillation counting analysis
Chain of Tyrosine-protein kinase BTK (Q06187 2-659 R28H limits assumed): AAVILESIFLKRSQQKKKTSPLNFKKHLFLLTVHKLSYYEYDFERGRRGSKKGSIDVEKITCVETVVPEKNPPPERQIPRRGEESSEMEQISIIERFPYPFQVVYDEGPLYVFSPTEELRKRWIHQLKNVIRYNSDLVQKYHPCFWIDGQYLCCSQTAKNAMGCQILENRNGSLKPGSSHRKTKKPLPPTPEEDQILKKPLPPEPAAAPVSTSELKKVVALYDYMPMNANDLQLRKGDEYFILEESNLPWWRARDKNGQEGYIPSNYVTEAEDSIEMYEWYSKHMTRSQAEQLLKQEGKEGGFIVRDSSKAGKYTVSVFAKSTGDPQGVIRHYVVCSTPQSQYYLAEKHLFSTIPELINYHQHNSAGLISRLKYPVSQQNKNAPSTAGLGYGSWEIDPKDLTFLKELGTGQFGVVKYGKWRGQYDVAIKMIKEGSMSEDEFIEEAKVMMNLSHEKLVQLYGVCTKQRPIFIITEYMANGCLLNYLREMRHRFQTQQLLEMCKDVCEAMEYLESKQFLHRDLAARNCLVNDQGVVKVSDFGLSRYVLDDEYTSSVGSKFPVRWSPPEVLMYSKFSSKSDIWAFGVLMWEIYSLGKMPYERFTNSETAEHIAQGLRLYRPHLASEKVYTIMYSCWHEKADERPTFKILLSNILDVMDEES

[13] = biological target: Casein kinase I isoform delta (Homo sapiens, UniProt P48730); experiment: Inhibition of recombinant human CK1delta (1 to 294 residues) using KRRRALS(p)VAS as substrate incubated for 40 mins in presence of [gamma-33ATP] by radiometric scintillation counting analysis
[14] = biological target: Serine/threonine-protein kinase PLK2 (Homo sapiens, UniProt Q9NYY3); experiment: Inhibition of recombinant human SNK (65 to 409 residues) using casein as substrate incubated for 40 mins in presence of [gamma33P]ATP by radiometric scintillation counting analysis
Chain of Serine/threonine-protein kinase PLK2 (Q9NYY3 whole entry, the tested form may be a part): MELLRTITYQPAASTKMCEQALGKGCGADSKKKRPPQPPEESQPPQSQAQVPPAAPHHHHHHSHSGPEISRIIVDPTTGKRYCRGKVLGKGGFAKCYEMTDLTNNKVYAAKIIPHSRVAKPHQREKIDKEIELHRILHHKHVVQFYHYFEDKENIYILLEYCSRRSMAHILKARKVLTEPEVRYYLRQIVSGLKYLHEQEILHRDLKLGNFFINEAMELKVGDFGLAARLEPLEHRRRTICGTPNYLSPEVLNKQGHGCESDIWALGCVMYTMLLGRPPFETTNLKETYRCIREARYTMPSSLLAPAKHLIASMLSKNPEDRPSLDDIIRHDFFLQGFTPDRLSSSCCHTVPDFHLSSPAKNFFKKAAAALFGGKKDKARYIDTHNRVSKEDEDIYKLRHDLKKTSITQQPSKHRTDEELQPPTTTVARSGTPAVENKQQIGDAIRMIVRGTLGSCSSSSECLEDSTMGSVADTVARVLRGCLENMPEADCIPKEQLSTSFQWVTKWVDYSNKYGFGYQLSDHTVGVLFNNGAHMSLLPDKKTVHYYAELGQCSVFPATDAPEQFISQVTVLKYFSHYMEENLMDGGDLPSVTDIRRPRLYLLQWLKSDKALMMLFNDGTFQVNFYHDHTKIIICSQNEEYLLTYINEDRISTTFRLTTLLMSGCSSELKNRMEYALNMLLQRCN

[15] = biological target: Serine/threonine-protein kinase 32A (Homo sapiens, UniProt Q8WU08); experiment: Inhibition of recombinant human full length STK32A using casein as substrate incubated for 40 mins in presence of [gamma33P]ATP by radiometric scintillation counting analysis
[16] = biological target: Hepatocyte growth factor receptor (Homo sapiens, UniProt P08581, Y1230D); experiment: Inhibition of recombinant human MET A1209G/V1290L/Y1248D triple mutant (974 to end residues) using KKKGQEEEYVFIE as substrate incubated for 40 mins in presence of [gamma-33ATP by radiometric scintillation counting analysis
[17] = biological target: PI3-kinase p110-alpha/p85-alpha (Homo sapiens, UniProt P42336, H1047R); experiment: Inhibition of recombinant human full length PI3K p110alpha/p85alpha H1047R mutant using phosphatidylinositol 4,5-bisphosphate as substrate incubated for 40 mins in presence of [gamma33P]ATP by radiometric scintillation counting analysis
[18] = Protein binding in monkey plasma at 1 uM incubated incubated for 5 hrs under shaking conditions by LC-MS analysis; assay type: ADME, cell-free, Macaca mulatta; settings: rhesus monkey, read-out: PPB (converted)
[19] = biological target: G protein-coupled receptor kinase 6 (Homo sapiens, UniProt P43250); experiment: Inhibition of recombinant full length human GRK6 using casein as substrate after 40 mins in presence of [gamma-33ATP] by radiometric scintillation counting analysis
[20] = biological target: Serine/threonine-protein kinase B-raf (Homo sapiens, UniProt P15056); experiment: Inhibition of recombinant full length human B-Raf (416 to end residues) using myelin basic protein substrate incubated for 40 mins in presence of [gamma-33ATP] by radiometric scintillation counting analysis
Chain of Serine/threonine-protein kinase B-raf (P15056 whole entry): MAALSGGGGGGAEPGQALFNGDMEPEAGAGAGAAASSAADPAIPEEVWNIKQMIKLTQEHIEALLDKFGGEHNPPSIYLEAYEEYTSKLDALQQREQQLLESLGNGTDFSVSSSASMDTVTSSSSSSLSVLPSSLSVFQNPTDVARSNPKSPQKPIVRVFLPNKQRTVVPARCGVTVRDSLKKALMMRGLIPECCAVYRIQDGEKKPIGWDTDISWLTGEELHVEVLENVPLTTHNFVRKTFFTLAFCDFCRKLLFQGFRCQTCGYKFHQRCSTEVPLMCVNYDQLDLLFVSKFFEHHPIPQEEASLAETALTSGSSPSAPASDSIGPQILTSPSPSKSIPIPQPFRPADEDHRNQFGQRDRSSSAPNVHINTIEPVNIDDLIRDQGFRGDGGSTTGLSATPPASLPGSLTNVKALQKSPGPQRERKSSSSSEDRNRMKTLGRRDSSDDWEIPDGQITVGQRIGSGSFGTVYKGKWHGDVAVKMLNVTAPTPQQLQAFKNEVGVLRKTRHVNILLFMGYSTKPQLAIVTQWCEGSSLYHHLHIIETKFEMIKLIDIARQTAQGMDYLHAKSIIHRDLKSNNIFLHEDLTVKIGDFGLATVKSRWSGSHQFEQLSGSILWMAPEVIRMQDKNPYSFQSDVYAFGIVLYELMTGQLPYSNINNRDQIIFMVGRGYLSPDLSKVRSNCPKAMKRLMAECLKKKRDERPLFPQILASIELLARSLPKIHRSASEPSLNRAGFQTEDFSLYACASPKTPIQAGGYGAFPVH

[21] = biological target: MAP/microtubule affinity-regulating kinase 4 (Homo sapiens, UniProt Q96L34); experiment: Inhibition of recombinant full length human MARK4 using KKKVSRSGLYRSP as substrate incubated for 40 mins in presence of [gamma-33ATP by radiometric scintillation counting analysis
Chain of MAP/microtubule affinity-regulating kinase 4 (Q96L34 whole entry): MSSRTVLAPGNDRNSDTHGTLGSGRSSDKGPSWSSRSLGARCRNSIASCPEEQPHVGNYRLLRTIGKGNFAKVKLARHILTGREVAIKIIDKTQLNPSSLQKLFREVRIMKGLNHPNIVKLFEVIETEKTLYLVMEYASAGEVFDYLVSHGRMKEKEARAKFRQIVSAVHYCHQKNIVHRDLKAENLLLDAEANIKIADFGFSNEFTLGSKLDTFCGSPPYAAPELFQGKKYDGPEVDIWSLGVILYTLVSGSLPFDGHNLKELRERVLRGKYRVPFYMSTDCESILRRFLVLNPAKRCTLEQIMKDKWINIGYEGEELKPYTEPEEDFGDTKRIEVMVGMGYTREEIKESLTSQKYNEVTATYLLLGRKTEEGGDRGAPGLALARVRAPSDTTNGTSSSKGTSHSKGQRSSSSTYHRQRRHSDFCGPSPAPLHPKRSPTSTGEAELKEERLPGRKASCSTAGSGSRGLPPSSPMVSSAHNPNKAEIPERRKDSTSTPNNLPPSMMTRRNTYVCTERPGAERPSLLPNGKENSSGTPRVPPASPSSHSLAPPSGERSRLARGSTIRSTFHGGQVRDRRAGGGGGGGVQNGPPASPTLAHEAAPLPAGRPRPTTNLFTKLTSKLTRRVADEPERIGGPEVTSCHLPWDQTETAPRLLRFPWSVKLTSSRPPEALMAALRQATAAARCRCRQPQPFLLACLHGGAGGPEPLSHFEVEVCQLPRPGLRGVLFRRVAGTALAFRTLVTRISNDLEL

[22] = biological target: Serine/threonine-protein kinase Sgk1 (Homo sapiens, UniProt O00141, S422D); experiment: Inhibition of recombinant human SGK S422D mutant (60 to end residues) using GRPRTSSFAEGKK as substrate incubated for 40 mins in presence of [gamma33P]ATP by radiometric scintillation counting analysis
Chain of Serine/threonine-protein kinase Sgk1 (O00141 whole entry S422D): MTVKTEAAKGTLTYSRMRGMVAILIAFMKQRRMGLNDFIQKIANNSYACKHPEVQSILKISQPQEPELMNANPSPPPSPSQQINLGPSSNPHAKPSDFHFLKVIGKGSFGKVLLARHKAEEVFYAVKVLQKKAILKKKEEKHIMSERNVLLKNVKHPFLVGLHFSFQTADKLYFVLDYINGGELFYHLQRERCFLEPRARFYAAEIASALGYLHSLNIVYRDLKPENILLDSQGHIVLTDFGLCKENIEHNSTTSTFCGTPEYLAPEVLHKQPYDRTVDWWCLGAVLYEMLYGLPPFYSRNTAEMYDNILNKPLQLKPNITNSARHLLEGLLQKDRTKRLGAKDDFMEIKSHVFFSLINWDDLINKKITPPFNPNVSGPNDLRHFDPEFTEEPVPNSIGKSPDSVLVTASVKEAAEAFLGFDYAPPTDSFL

[23] = biological target: Protein kinase C delta type (Homo sapiens, UniProt Q05655); experiment: Inhibition of recombinant human PKCdelta (2 to end residues) using ERMRPRKRQGSVRR as substrate incubated for 40 mins in presence of [gamma33P]ATP by radiometric scintillation counting analysis
[24] = biological target: Mast/stem cell growth factor receptor Kit (Homo sapiens, UniProt P10721, D816H); experiment: Inhibition of recombinant human C-Kit D816H mutant (544 to end residues) using poly(Glu, Tyr) 4:1 as substrate incubated 40 mins in presence of [gamma-33ATP] by radiometric scintillation counting analysis
[25] = biological target: Myosin light chain kinase 2, skeletal/cardiac muscle (Homo sapiens, UniProt Q9H1R3); experiment: Inhibition of recombinant full length human MYLK2 using KKLNRTLSFAEPG as substrate measured after 40 mins in presence of [gamma33P]ATP by radiometric scintillation counting analysis
[26] = biological target: Rho-associated protein kinase 2 (Homo sapiens, UniProt O75116); experiment: Inhibition of recombinant human ROCK2 (11 to 552 residues) using KEAKEKRQEQIAKR as substrate incubated for 40 mins in presence of [gamma-33P]ATP and 10 uM ATP by radiometric scintillation counting analysis
Chain of Rho-associated protein kinase 2 (O75116 whole entry, the tested form may be a part): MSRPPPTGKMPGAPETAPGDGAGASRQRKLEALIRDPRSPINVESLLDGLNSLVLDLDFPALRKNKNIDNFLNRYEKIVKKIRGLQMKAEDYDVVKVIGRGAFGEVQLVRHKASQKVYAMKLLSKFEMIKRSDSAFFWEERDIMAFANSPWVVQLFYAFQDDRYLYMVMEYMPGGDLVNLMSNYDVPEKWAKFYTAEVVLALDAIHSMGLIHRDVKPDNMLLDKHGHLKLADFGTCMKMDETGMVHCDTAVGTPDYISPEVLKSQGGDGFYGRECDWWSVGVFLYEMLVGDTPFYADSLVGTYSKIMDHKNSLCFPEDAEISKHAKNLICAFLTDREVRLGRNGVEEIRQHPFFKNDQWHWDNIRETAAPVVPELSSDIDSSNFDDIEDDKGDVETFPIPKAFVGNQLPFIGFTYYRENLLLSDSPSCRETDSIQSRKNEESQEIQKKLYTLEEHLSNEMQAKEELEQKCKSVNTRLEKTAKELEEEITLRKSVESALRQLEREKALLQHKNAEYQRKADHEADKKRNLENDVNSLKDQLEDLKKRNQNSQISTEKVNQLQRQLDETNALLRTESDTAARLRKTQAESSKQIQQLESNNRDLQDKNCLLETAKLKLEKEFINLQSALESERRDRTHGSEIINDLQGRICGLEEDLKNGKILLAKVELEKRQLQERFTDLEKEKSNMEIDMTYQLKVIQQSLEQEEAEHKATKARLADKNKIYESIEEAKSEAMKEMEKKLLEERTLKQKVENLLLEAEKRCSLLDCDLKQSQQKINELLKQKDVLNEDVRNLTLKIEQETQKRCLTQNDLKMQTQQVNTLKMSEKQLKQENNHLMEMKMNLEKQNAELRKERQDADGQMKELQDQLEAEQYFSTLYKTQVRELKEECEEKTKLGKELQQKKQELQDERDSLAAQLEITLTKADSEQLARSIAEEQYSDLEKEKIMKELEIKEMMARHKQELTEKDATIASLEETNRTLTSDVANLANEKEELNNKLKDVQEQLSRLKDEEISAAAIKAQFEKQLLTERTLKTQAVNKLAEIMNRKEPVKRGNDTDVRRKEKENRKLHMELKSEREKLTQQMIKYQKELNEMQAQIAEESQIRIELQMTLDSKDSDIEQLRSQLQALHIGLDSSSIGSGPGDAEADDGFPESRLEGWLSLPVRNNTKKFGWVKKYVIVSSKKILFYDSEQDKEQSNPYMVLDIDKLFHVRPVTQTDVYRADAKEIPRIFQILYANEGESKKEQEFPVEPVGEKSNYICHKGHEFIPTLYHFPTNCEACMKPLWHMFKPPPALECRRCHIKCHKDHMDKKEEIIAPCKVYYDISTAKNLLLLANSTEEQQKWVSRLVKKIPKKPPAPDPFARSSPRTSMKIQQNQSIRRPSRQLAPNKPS

CN(C)c1ccc(C(=O)Nc2cccc(NC(=O)COc3ccc4c(=O)ccoc4c3)c2)cc1
0.003 µM: IC50 [26]
0.002: fraction unbound at 5 h, 1 µM [18]
> 10 µM: IC50 [1] | IC50 [2] | IC50 [3] | IC50 [4] | IC50 [5] | IC50 [6] | IC50 [7] | IC50 [8] | IC50 [9] | IC50 [10] | IC50 [11] | IC50 [12] | IC50 [13] | IC50 [14] | IC50 [15] | IC50 [16] | IC50 [17] | IC50 [19] | IC50 [20] | IC50 [21] | IC50 [22] | IC50 [23] | IC50 [24] | IC50 [25]
